Results from ChEMBL document CHEMBL1201862, “PubChem BioAssay data set” (2004).
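Five compound concentrations were applied to cells in 96-well plates for 48 hours; endpoints were derived by simple linear interpolation of the resulting dose-response curve. The concentration for 50% growth inhibition is given as GI50.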 Calls of active or inactive are those of the source. Cut-off read from the data, not from the text of the source: active = GI50 up to about 1.1 µM and inactive = higher.

What was measured:
Experiment in all cases: DTP human tumour cell line panel, 48 h
HOP-62 = tested on: HOP-62
A498 = tested on: A498
HCC 2998 = tested on: HCC 2998
RPMI-8226 = tested on: RPMI-8226
RXF 393 = tested on: RXF 393
U-251 = tested on: U-251
NCI-H522 = tested on: NCI-H522
SK-MEL-2 = tested on: SK-MEL-2
HCT-116 = tested on: HCT-116
COLO 205 = tested on: COLO 205
SF-295 = tested on: SF-295
OVCAR-3 = tested on: OVCAR-3
SK-MEL-28 = tested on: SK-MEL-28
M19-MEL = tested on: M19-MEL
A549 = tested on: A549
NCI-H23 = tested on: NCI-H23
SK-MEL-5 = tested on: SK-MEL-5

In the case of `CCN1C(=O)N(C)C(O)c2c1nc1ccccn1c2=O` (configuration not stated), the GI50 (HOP-62) is reported as 28.1 µM (inactive), the GI50 (A498) is reported as 25.6 µM (inactive) and the GI50 (HCC 2998) is reported as 20.3 µM (inactive). The GI50 (RPMI-8226) was 27 µM (inactive), the GI50 (RXF 393) was 23 µM (inactive) and the GI50 (U-251) was 30.8 µM (inactive). For the same compound, the GI50 (NCI-H522) was 25.3 µM (inactive), the GI50 (SK-MEL-2) was 22.2 µM (inactive) and the GI50 (HCT-116) was 28.6 µM (inactive). For the same compound, the GI50 (COLO 205) was 21.2 µM (inactive), the GI50 (SF-295) was 28 µM (inactive) and the GI50 (OVCAR-3) was 26.1 µM (inactive). For the same compound, the GI50 (SK-MEL-28) was 27.4 µM (inactive), the GI50 (M19-MEL) was 28.4 µM (inactive) and the GI50 (A549) was 34.2 µM (inactive). The GI50 (NCI-H23) was 24.9 µM (inactive).
`C/C(CC(=O)Nc1ccc(C)cc1)=N\NC(N)=S` was tested, and the GI50 (HOP-62) was > 100 µM (inactive), the GI50 (A498) was > 100 µM (inactive) and the GI50 (HCC 2998) was > 100 µM (inactive). The GI50 (RPMI-8226) was > 100 µM (inactive), the GI50 (RXF 393) was > 100 µM (inactive) and the GI50 (U-251) was > 100 µM (inactive). For the same compound, the GI50 (SK-MEL-5) was > 100 µM (inactive), the GI50 (NCI-H522) was 94 µM (inactive) and the GI50 (SK-MEL-2) was > 100 µM (inactive). For the same compound, the GI50 (HCT-116) was > 100 µM (inactive), the GI50 (COLO 205) was > 100 µM (inactive) and the GI50 (SF-295) was > 100 µM (inactive). The GI50 (OVCAR-3) was > 100 µM (inactive), the GI50 (SK-MEL-28) was > 100 µM (inactive) and the GI50 (M19-MEL) was > 100 µM (inactive). For the same compound, the GI50 (A549) was > 100 µM (inactive) and the GI50 (NCI-H23) was > 100 µM (inactive).
With `Cn1cccc1/C=C/c1cc(Br)c(/C=C/c2cccn2C)cc1Br` the GI50 (A498) was 21 µM (inactive), the GI50 (HCC 2998) was 2.62 µM (inactive) and the GI50 (RPMI-8226) was 15.2 µM (inactive). The GI50 (RXF 393) was 12.6 µM (inactive), the GI50 (U-251) was 13 µM (inactive) and the GI50 (SK-MEL-5) was 15.2 µM (inactive). The GI50 (NCI-H522) was 14.5 µM (inactive), the GI50 (SK-MEL-2) was 14.6 µM (inactive) and the GI50 (HCT-116) was 16.3 µM (inactive). For the same compound, the GI50 (COLO 205) was 13.2 µM (inactive), the GI50 (SF-295) was 20.9 µM (inactive) and the GI50 (OVCAR-3) was 16.1 µM (inactive). For the same compound, the GI50 (SK-MEL-28) was 15.5 µM (inactive), the GI50 (M19-MEL) was 18.4 µM (inactive) and the GI50 (A549) was 11.9 µM (inactive). The GI50 (NCI-H23) was > 10 µM (inactive).
In the case of `CN(C)CCC(=O)c1ccccc1`, the GI50 (HOP-62) is reported as > 100 µM (inactive), the GI50 (A498) is reported as > 71.6 µM (inactive) and the GI50 (HCC 2998) is reported as > 58.1 µM (inactive). For the same compound, the GI50 (RPMI-8226) was 9.04 µM (inactive), the GI50 (RXF 393) was 38.3 µM (inactive) and the GI50 (U-251) was > 56.2 µM (inactive). For the same compound, the GI50 (SK-MEL-5) was > 43 µM (inactive), the GI50 (NCI-H522) was 0.693 µM (active) and the GI50 (SK-MEL-2) was > 62.8 µM (inactive). The GI50 (HCT-116) was 28.4 µM (inactive), the GI50 (COLO 205) was 28.9 µM (inactive) and the GI50 (SF-295) was > 100 µM (inactive). The GI50 (OVCAR-3) was 42.7 µM (inactive), the GI50 (SK-MEL-28) was 41 µM (inactive) and the GI50 (M19-MEL) was 33.2 µM (inactive). The GI50 (A549) was > 65.2 µM (inactive) and the GI50 (NCI-H23) was > 61.8 µM (inactive).
For `CC(=O)OCC(=O)[C@@]12OC(C)(C)O[C@@H]1C[C@H]1[C@@H]3CC(C=O)=C4C=C(OCCCl)CC[C@]4(C)[C@@]3(F)[C@@H](O)C[C@@]12C` [FORMOCORTAL], the GI50 (HOP-62) was 24.8 µM (inactive), the GI50 (A498) was 21.9 µM (inactive) and the GI50 (HCC 2998) was 15.3 µM (inactive). The GI50 (RPMI-8226) was 2.58 µM (inactive), the GI50 (RXF 393) was 5.93 µM (inactive) and the GI50 (U-251) was 14.2 µM (inactive). The GI50 (NCI-H522) was 20.3 µM (inactive), the GI50 (SK-MEL-2) was 20.7 µM (inactive) and the GI50 (HCT-116) was 10.4 µM (inactive). The GI50 (COLO 205) was 18 µM (inactive), the GI50 (SF-295) was 5.42 µM (inactive) and the GI50 (OVCAR-3) was 25.9 µM (inactive). The GI50 (SK-MEL-28) was 19 µM (inactive), the GI50 (M19-MEL) was 22.3 µM (inactive) and the GI50 (A549) was 24.5 µM (inactive). For the same compound, the GI50 (NCI-H23) was 15.8 µM (inactive).
With `COC1C=CC(C(=O)[N+]2=Cc3[nH]c4ccccc4c3CC2)O1` (configuration not stated) the GI50 (HOP-62) was > 100 µM (inactive), the GI50 (A498) was > 100 µM (inactive) and the GI50 (HCC 2998) was 55.6 µM (inactive). The GI50 (RPMI-8226) was 71.1 µM (inactive), the GI50 (RXF 393) was 61.5 µM (inactive) and the GI50 (U-251) was 37.9 µM (inactive). The GI50 (SK-MEL-5) was > 100 µM (inactive), the GI50 (NCI-H522) was 34.9 µM (inactive) and the GI50 (SK-MEL-2) was > 100 µM (inactive). The GI50 (HCT-116) was > 100 µM (inactive), the GI50 (COLO 205) was > 100 µM (inactive) and the GI50 (SF-295) was > 100 µM (inactive). The GI50 (OVCAR-3) was 83.4 µM (inactive), the GI50 (SK-MEL-28) was > 100 µM (inactive) and the GI50 (M19-MEL) was > 100 µM (inactive). For the same compound, the GI50 (A549) was > 100 µM (inactive) and the GI50 (NCI-H23) was > 100 µM (inactive).
For `O=C1c2c(c3c4ccccc4n4c3c3c2c2ccccc2n3C/C=C\C4)C(=O)N1Cc1ccccc1`, the GI50 (HOP-62) was > 100 µM (inactive), the GI50 (A498) was > 100 µM (inactive) and the GI50 (HCC 2998) was > 100 µM (inactive). The GI50 (RPMI-8226) was > 100 µM (inactive), the GI50 (RXF 393) was > 100 µM (inactive) and the GI50 (U-251) was 46.5 µM (inactive). For the same compound, the GI50 (SK-MEL-5) was > 100 µM (inactive), the GI50 (NCI-H522) was > 100 µM (inactive) and the GI50 (HCT-116) was > 100 µM (inactive). For the same compound, the GI50 (COLO 205) was > 100 µM (inactive), the GI50 (SF-295) was > 100 µM (inactive) and the GI50 (OVCAR-3) was > 100 µM (inactive). For the same compound, the GI50 (SK-MEL-28) was > 100 µM (inactive), the GI50 (M19-MEL) was > 100 µM (inactive) and the GI50 (A549) was > 100 µM (inactive). The GI50 (NCI-H23) was > 100 µM (inactive).
With `NNC(=O)/C(=C/c1cccc([N+](=O)[O-])c1)NC(=O)c1ccccc1` the GI50 (HOP-62) was > 100 µM (inactive), the GI50 (A498) was > 100 µM (inactive) and the GI50 (HCC 2998) was > 100 µM (inactive). For the same compound, the GI50 (RPMI-8226) was > 100 µM (inactive), the GI50 (RXF 393) was > 100 µM (inactive) and the GI50 (U-251) was > 100 µM (inactive). For the same compound, the GI50 (SK-MEL-5) was > 100 µM (inactive), the GI50 (NCI-H522) was > 100 µM (inactive) and the GI50 (SK-MEL-2) was > 100 µM (inactive). For the same compound, the GI50 (HCT-116) was > 100 µM (inactive), the GI50 (COLO 205) was > 100 µM (inactive) and the GI50 (SF-295) was > 100 µM (inactive). For the same compound, the GI50 (OVCAR-3) was > 100 µM (inactive), the GI50 (SK-MEL-28) was > 100 µM (inactive) and the GI50 (M19-MEL) was > 100 µM (inactive). The GI50 (A549) was > 100 µM (inactive) and the GI50 (NCI-H23) was > 100 µM (inactive).
